Where “and” joins values, the source holds several entries; their conditions need not be identical. Equal values may be shown once. Inconclusive results and toxic doses are left out. Non-standard residues stand in square brackets, D forms with d. Residues, ends and D or L forms follow the SMILES beside them. ξ: configuration not given here. ξF = NC(Cc1ccccc1)C(=O)O
System: CD2F1 mice, L1210 leukemia ip, survival T/C
Assay: NCI In Vivo Anticancer Drug Screen. Data for tumor model L1210 Leukemia (intraperitoneal) in CD2F1 (CDF1) mice
Conditions: higher = longer survival
Summary of the method: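 Ratio T/C, where T is the treated-group value and C the vehicle-dosed control value, from mice implanted with a transplantable tumor.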

[1] = endpoint: mean survival time, dose: 100.0 mg/kg/injection, schedule: Q04DX003 (ip), vehicle: saline with Tween-80
[2] = endpoint: mean survival time, dose: 200.0 mg/kg/injection, schedule: Q04DX003 (ip), vehicle: saline with Tween-80
[3] = endpoint: mean survival time, dose: 400.0 mg/kg/injection, schedule: Q04DX003 (ip), vehicle: saline with Tween-80
[4] = endpoint: mean survival time, dose: 100.0 mg/kg/injection, schedule: Q01DX009 (ip), vehicle: saline with Tween-80
[5] = endpoint: mean survival time, dose: 200.0 mg/kg/injection, schedule: Q01DX009 (ip), vehicle: saline with Tween-80
[6] = endpoint: mean survival time, dose: 400.0 mg/kg/injection, schedule: Q01DX009 (ip), vehicle: saline with Tween-80

C=CCSc1ncnc2c1c(Br)cn2C1OC(CO)C(O)C1O (centres undefined)
T/C (endpoint: mean survival time, dose: 75.0 mg/kg/injection, schedule: Q01DX001 (ip), vehicle: saline): 101 % of control
T/C (endpoint: mean survival time, dose: 150.0 mg/kg/injection, schedule: Q01DX001 (ip), vehicle: saline): 107 % of control
T/C (endpoint: mean survival time, dose: 300.0 mg/kg/injection, schedule: Q01DX001 (ip), vehicle: saline): 106 % of control

CCCCCC[Se][Se]CCCCCC
T/C (endpoint: median survival time, dose: 1.56 mg/kg/injection, schedule: Q01DX009 (ip), vehicle: Klucel (hydroxypropylcellulose) (HPC)): 98 % of control
T/C (endpoint: median survival time, dose: 3.12 mg/kg/injection, schedule: Q01DX009 (ip), vehicle: Klucel (hydroxypropylcellulose) (HPC)): 100 % of control
T/C (endpoint: median survival time, dose: 6.25 mg/kg/injection, schedule: Q01DX009 (ip), vehicle: Klucel (hydroxypropylcellulose) (HPC)): 101 % of control
T/C (endpoint: median survival time, dose: 12.5 mg/kg/injection, schedule: Q01DX009 (ip), vehicle: Klucel (hydroxypropylcellulose) (HPC)): 97 % of control

c1ccc2c(c1)Oc1ccccc1C2C1c2ccccc2Oc2ccccc21
T/C [1]: 100 % of control
T/C [2]: 100 % of control
T/C [3]: 116 % of control

CO[C@@]12[C@@H]3N[C@@H]3CN1C1=C(C(=O)C(NCc3ccco3)=C(C)C1=O)[C@@H]2COC(N)=O
T/C (endpoint: mean survival time, dose: 1.5 mg/kg/injection, schedule: Q01DX001 (ip), vehicle: distilled water + Tween-80): 113 % of control
T/C (endpoint: mean survival time, dose: 3.0 mg/kg/injection, schedule: Q01DX001 (ip), vehicle: distilled water + Tween-80): 120 % of control
T/C (endpoint: mean survival time, dose: 24.0 mg/kg/injection, schedule: Q01DX001 (ip), vehicle: distilled water + Tween-80): 156 % of control
T/C (endpoint: mean survival time, dose: 36.0 mg/kg/injection, schedule: Q01DX001 (ip), vehicle: distilled water + Tween-80): 108 % of control

NCC(=O)NC(Cc1ccccc1)C(=O)O (centres undefined) (H-Gly-[ξF]-OH)
T/C (endpoint: mean survival time, dose: 50.0 mg/kg/injection, schedule: Q01DX009 (ip), vehicle: saline with Tween-80): 102 % of control
T/C [4]: 100 % of control
T/C [5]: 100 % of control

O=Cc1cc2c(cc1Br)OCO2
T/C [4]: 98 % of control
T/C [1]: 98 % of control
T/C [5]: 97 % of control
T/C [2]: 101 % of control
T/C [6]: 92 % of control
T/C [3]: 98 % of control

COc1cc(OC)cc(C(=O)Cl)c1
T/C (endpoint: mean survival time, dose: 100.0 mg/kg/injection, schedule: Q04DX003 (ip), vehicle: saline sonified): 98 % of control
T/C (endpoint: mean survival time, dose: 200.0 mg/kg/injection, schedule: Q04DX003 (ip), vehicle: saline sonified): 95 % of control
T/C (endpoint: mean survival time, dose: 400.0 mg/kg/injection, schedule: Q04DX003 (ip), vehicle: saline sonified): 91 % of control

O=C(O)c1ccccc1N(CCO)CCCl
T/C (endpoint: mean survival time, dose: 3.13 mg/kg/injection, schedule: Q01DX009 (ip), vehicle: saline with Tween-80): 121 % of control and 110 % of control
T/C (endpoint: mean survival time, dose: 6.25 mg/kg/injection, schedule: Q01DX009 (ip), vehicle: saline with Tween-80): 119 % of control
T/C (endpoint: mean survival time, dose: 10.0 mg/kg/injection, schedule: Q01DX009 (ip), vehicle: Klucel (hydroxypropylcellulose) (HPC)): 186 % of control

O=C(Nc1cc(Cl)c(I)cc1Cl)C(F)(F)F
T/C (endpoint: mean survival time, dose: 100.0 mg/kg/injection, schedule: Q01DX001 (ip), vehicle: saline): 102 % of control
T/C (endpoint: mean survival time, dose: 200.0 mg/kg/injection, schedule: Q01DX001 (ip), vehicle: saline): 111 % of control
T/C (endpoint: mean survival time, dose: 400.0 mg/kg/injection, schedule: Q01DX001 (ip), vehicle: saline): 90 % of control

CN(C)C(=O)c1cccc(COc2ccc(N)cc2Cl)c1
T/C (endpoint: mean survival time, dose: 50.0 mg/kg/injection, schedule: Q01DX009 (ip), vehicle: saline): 113 % of control
T/C [4]: 90 % of control
T/C (endpoint: mean survival time, dose: 100.0 mg/kg/injection, schedule: Q01DX009 (ip), vehicle: saline): 104 % of control
T/C [5]: 93 % of control
T/C (endpoint: mean survival time, dose: 200.0 mg/kg/injection, schedule: Q01DX009 (ip), vehicle: saline): 105 % of control
T/C [2]: 87 % of control
T/C [6]: 95 % of control
T/C [3]: 89 % of control

CC12CCC(O)CC1=CCC1C2CCC2(C)C1CCC21CCNP(=O)(N(CCCl)CCCl)O1 (centres undefined)
T/C (endpoint: mean survival time, dose: 62.5 mg/kg/injection, schedule: Q01DX001 (ip), vehicle: saline): 98 % of control
T/C (endpoint: mean survival time, dose: 125.0 mg/kg/injection, schedule: Q01DX001 (ip), vehicle: saline): 101 % of control
T/C (endpoint: mean survival time, dose: 250.0 mg/kg/injection, schedule: Q01DX001 (ip), vehicle: saline): 93 % of control
T/C (endpoint: mean survival time, dose: 500.0 mg/kg/injection, schedule: Q01DX001 (ip), vehicle: saline): 97 % of control
